Series [1] has as its system RAW264.7. The series is described as follows: Antiinflammatory activity in LPS/IFNgamma-stimulated mouse RAW264.7 cells assessed as decrease in TNFalpha mRNA level incubated for 20 hrs followed by LPS/IFNgamma stimulation for last 4 hrs by qRT-PCR analysis. The series is classed as functional, cell-based.
Series [2] concerns the target Transcription factor p65 (Mus musculus) (UniProt Q04207). The series is described as follows: Inhibition of NF-kappaB p65 nuclear translocation in LPS/IFNgamma-stimulated mouse RAW264.7 cells at 1 uM incubated for 20 hrs followed by LPS/IFNgamma addition measured after 1 hr by Hoechst 33342 staining based immunofluorescence microscopy. The format is cell-based.
The test system of series [3] is RAW264.7. Briefly: Antiinflammatory activity in LPS/IFNgamma-stimulated mouse RAW264.7 cells assessed as decrease in IL-12b mRNA level at 1 to 10 uM incubated for 20 hrs followed by LPS/IFNgamma stimulation for last 4 hrs by qRT-PCR analysis. The series is classed as functional, cell-based. (In general: In qPCR the cycle at which signal appears reflects the starting amount.)

Series [4] addresses Histone deacetylase 2 (Homo sapiens) (UniProt Q92769). Briefly: Inhibition of recombinant human C-terminal His/flag-tagged HDAC2 at 2 to 16 uM using Boc-Lys-(Ac)-AMC as substrate in presence of Lys-C by fluorescence assay. The conditions noted are these: TDE = time-dependent effect.
Series [5] addresses Histone deacetylase 1 (Homo sapiens) (UniProt Q13547). Briefly: Inhibition of recombinant human C-terminal His/flag-tagged HDAC1 using Boc-Lys-(Ac)-AMC as substrate after 1 hr by fluorescence assay.
For series [6] the target is unchanged. Briefly: Inhibition of recombinant human C-terminal His/flag-tagged HDAC1 at 2 to 16 uM using Boc-Lys-(Ac)-AMC as substrate preincubated for 1 hr followed by substrate addition in presence of Lys-C by fluorescence assay.
The target in series [7] is T1, Histone deacetylase 3/Nuclear receptor corepressor 2 (HDAC3/NCoR2) (Homo sapiens) (UniProt O15379+Q9Y618). Briefly: Inhibition of recombinant human C-terminal His-tagged HDAC3/NcoR2 using Boc-Lys-(Ac)-AMC as substrate after 1 hr by fluorescence assay. The series is classed as protein-complex assay.
Series [8] addresses Transcription factor p65 (Mus musculus) (UniProt Q04207). The series is described as follows: Inhibition of NF-kappaB p65 transcriptional activity in LPS/IFNgamma-stimulated mouse RAW264.7 cells at 10 uM incubated for 20 hrs followed by LPS/IFNgamma stimulation for last 4 hrs by SEAP reporter gene assay. The series is classed as cell-based. Background: In a reporter assay the amount or activity of a reporter protein is the signal.

Series [9] deals with Histone deacetylase 1 (Homo sapiens) (UniProt Q13547). The series is described as follows: Inhibition of recombinant human C-terminal His/flag-tagged HDAC1 at 2 to 16 uM using Boc-Lys-(Ac)-AMC as substrate in presence of Lys-C by fluorescence assay. As to conditions: TDE = time-dependent effect.
Sequence of Histone deacetylase 1 (Homo sapiens) (Q13547 whole entry): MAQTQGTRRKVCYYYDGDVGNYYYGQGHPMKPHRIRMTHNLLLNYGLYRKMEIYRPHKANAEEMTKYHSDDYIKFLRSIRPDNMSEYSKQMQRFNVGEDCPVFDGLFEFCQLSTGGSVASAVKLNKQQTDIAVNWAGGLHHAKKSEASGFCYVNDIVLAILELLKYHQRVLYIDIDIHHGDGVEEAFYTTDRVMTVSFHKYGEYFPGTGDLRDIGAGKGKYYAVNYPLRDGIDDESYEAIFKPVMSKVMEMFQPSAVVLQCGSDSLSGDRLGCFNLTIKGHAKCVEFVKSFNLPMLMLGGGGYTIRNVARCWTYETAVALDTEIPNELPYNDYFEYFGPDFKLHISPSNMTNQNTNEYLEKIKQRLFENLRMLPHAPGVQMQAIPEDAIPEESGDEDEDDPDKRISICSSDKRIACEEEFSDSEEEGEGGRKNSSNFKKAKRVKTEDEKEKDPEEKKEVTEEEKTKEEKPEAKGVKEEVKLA
In series [10] the test system is RAW264.7. The series is described as follows: Antiinflammatory activity in LPS/IFNgamma-stimulated mouse RAW264.7 cells assessed as decrease in IL-6 mRNA level incubated for 20 hrs followed by LPS/IFNgamma stimulation for last 4 hrs by qRT-PCR analysis. The format is functional, cell-based.
For series [11], the target named is T1, Histone deacetylase 3/Nuclear receptor corepressor 2 (HDAC3/NCoR2) (Homo sapiens). The series is described as follows: Inhibition of recombinant human C-terminal His/flag-tagged HDAC3/NcoR2 at 2 to 16 uM using Boc-Lys-(Ac)-AMC as substrate in presence of Lys-C by fluorescence assay. The format is protein-complex assay. The conditions noted are these: TDE = time-dependent effect.

Series [12] addresses Histone deacetylase 2 (Homo sapiens) (UniProt Q92769). The series is described as follows: Inhibition of recombinant human C-terminal His/flag-tagged HDAC2 at 2 to 16 uM using Boc-Lys-(Ac)-AMC as substrate preincubated for 1 hr followed by substrate addition in presence of Lys-C by fluorescence assay.
Series [13] deals with RAW264.7. The series is described as follows: Antiinflammatory activity in LPS/IFNgamma-stimulated mouse RAW264.7 cells assessed as decrease in IL-6 mRNA level at 10 uM incubated for 20 hrs followed by LPS/IFNgamma stimulation for last 4 hrs by qRT-PCR analysis. The format is functional. Set-up: scale not given: the % may be the effect or the level left.
The subject of series [14] is RAW264.7. The series is described as follows: Cytotoxicity against LPS/IFNgamma-stimulated mouse RAW264.7 cells assessed as decrease in cell viability incubated for 16 hrs followed by LPS/IFNgamma stimulation for last 4 hrs by MTS assay. The conditions noted are these: raw264.7, 16 h. The format is cell-based. (In general: Tetrazolium assays rely on reduction of a dye to a coloured formazan, in cell work by metabolically active cells.)

The subject of series [15] is RAW264.7. Briefly: Antiinflammatory activity in LPS/IFNgamma-stimulated mouse RAW264.7 cells assessed as decrease in iNOS mRNA level at 10 uM incubated for 20 hrs followed by LPS/IFNgamma stimulation for last 4 hrs by qRT-PCR analysis. The format is functional, cell-based.
The target in series [16] is Histone deacetylase 2 (Homo sapiens) (UniProt Q92769). Briefly: Inhibition of recombinant human C-terminal flag-tagged HDAC2 using Boc-Lys-(Ac)-AMC as substrate after 1 hr by fluorescence assay.
Sequence of Histone deacetylase 2 (Homo sapiens) (Q92769 whole entry): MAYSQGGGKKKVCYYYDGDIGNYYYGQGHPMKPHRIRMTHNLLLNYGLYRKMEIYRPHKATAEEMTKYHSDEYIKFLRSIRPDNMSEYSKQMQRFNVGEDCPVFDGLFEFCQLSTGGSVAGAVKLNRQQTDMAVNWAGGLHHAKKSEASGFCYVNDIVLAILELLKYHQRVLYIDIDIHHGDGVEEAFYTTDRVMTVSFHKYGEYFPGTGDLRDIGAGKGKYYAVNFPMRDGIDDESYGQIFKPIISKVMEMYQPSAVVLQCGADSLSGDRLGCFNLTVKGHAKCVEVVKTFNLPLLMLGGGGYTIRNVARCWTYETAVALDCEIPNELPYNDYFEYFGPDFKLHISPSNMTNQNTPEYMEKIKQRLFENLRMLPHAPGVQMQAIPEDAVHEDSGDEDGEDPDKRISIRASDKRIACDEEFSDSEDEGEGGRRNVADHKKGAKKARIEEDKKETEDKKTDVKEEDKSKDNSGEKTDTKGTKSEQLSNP
Series [17] relates to RAW264.7. The series is described as follows: Antiinflammatory activity in LPS/IFNgamma-stimulated mouse RAW264.7 cells assessed as decrease in IL-1beta mRNA level at 1 to 10 uM incubated for 20 hrs followed by LPS/IFNgamma stimulation for last 4 hrs by qRT-PCR analysis. The series is classed as functional, cell-based.
Series [18] addresses T1, Histone deacetylase 3/Nuclear receptor corepressor 2 (HDAC3/NCoR2) (Homo sapiens). The series is described as follows: Inhibition of recombinant human C-terminal His/flag-tagged HDAC3/NcoR2 at 2 to 16 uM using Boc-Lys-(Ac)-AMC as substrate preincubated for 1 hr followed by substrate addition in presence of Lys-C by fluorescence assay. The format is protein-complex assay.

Series [19] deals with T2, Histone deacetylase 8 (Homo sapiens) (UniProt Q9BY41).
T2 sequence (whole entry): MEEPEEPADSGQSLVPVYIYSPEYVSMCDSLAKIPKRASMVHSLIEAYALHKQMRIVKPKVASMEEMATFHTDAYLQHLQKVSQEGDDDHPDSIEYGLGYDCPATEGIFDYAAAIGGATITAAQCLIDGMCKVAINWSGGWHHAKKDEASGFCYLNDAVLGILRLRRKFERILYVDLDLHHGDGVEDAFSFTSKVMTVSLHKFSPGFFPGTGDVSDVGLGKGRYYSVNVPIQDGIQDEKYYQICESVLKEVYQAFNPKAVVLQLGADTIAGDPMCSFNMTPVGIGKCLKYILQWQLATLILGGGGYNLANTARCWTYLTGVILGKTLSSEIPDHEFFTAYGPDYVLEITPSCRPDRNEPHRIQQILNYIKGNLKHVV
The series is described as follows: Inhibition of recombinant human C-terminal His-tagged HDAC8 up to 50 uM using Boc-Lys-(Ac)-AMC as substrate after 1 hr by fluorescence assay.

The target of series [20] is Transcription factor p65 (Mus musculus) (UniProt Q04207). The series is described as follows: Inhibition of NF-kappaB p65 transcriptional activity in LPS/IFNgamma-stimulated mouse RAW264.7 cells at 1 to 5 uM incubated for 20 hrs followed by LPS/IFNgamma stimulation for last 4 hrs by SEAP reporter gene assay. The series is classed as cell-based.
Sequence of Transcription factor p65 (Mus musculus) (Q04207 whole entry): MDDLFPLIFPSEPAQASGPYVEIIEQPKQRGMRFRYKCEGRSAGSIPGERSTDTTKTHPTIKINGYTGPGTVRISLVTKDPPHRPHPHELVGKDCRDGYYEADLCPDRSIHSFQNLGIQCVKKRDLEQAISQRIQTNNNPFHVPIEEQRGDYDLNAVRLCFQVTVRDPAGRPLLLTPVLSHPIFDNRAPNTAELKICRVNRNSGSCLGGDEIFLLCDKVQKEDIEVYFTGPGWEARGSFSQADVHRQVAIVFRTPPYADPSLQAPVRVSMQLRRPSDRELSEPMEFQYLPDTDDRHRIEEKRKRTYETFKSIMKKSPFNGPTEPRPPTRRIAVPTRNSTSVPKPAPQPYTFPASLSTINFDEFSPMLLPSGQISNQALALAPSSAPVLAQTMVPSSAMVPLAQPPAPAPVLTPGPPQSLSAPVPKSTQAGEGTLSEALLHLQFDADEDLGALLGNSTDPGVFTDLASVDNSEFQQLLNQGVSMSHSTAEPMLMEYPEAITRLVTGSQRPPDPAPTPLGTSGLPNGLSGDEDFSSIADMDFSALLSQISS

The source made the active and inactive calls. No cut-off for these calls is given here.

For `Nc1ccccc1NC(=O)c1ccc(CNc2ccc(/N=N/c3ccccc3)cc2)cc1`, the Activity result in series [1] was “Dose-dependent effect”; in [10], “Dose-dependent effect”; in series [13] it was 90%; in series [14], “Non-Toxic”. Also, the inhibition entry in series [2], in [5], in [6], in [7], in series [12] and in series [16] was “Active” each time. Also, the inhibition (commonly the drop in the measured response relative to a control, in per cent) in series [18] was “Active”. For the same compound, the outcome in series [3], in series [15] and in [17] was Active. Besides, the inhibition entry is “Tde” in series [4], < 50% in series [8], “Tde” in series [9] and “Tde” in series [11].

On to `Nc1ccccc1NC(=O)c1ccc(CNc2ccccc2/N=N/c2ccccc2)cc1`, for which the inhibition entry in [19] is “inactive”.

With `Nc1ccccc1NC(=O)c1ccc(CNc2cccc(/N=N/c3ccccc3)c2)cc1`, the inhibition result in series [2], in series [8] and in [20] was “inactive” in each case. Besides, the inhibition entry in series [4], in series [9] and in [11] was “Tde” throughout. The inhibition result in [5], in series [6], in [7], in series [12], in series [16] and in [18] was “Active” in each case. The Activity result in series [14] is recorded as “Non-Toxic”. For the same compound, the outcome in series [15] was inactive.

`CC(C)(C)OC(=O)Nc1ccccc1NC(=O)c1ccc(CNc2ccccc2/N=N/c2ccccc2)cc1`: the inhibition result in series [2], in [5], in series [6], in series [7], in [12] and in series [16] was “Active” each time. Also, the inhibition entry in [18] is “Active”. Also, the inhibition entry was “Tde” in series [4], < 50% in series [8], “Tde” in series [9] and “Tde” in [11]. For the same compound, the Activity result in series [14] is on record as “Non-Toxic”. In addition, the outcome in series [15] was inactive. In [19], the inhibition result is “inactive”.

The values above are taken from ChEMBL document CHEMBL4190172 (Medchemcomm, 2016).
